{
  "source": "patent US20250235476A1",
  "about": "“METHODS AND COMPOSITIONS THAT ARE ALTERNATIVES TO ANTIBIOTICS” (priority 2022, published 2025)",
  "tested_on": "non-specific upper respiratory infection (URI)",
  "experiment": "Randomized double-blind placebo-controlled clinical trial: Days To Recovery (DTR)",
  "assay_type": "in vivo, human",
  "settings": "added to EZC during acute phase of illness",
  "procedure": "Methods: A total of 360 patients across the United States were enrolled and randomized in a double-blind manner across two intervention groups, EZC, EZCD, and one placebo group. The study was conducted utilizing a smartphone-based app to screen, enroll and capture study data of the participants. Once a study participant reported the first symptoms of a URI, they were advised to take the intervention as directed and complete the daily symptom survey score until their symptoms resolved.\nA total of 360 individuals, male or female over 18 years old, were enrolled by a third-party clinical research organization (CRO), to participate in the study. […] The placebo was composed of rice concentrate.\nThe study was conducted with the CRO's technology platform utilized to screen, enroll and capture study data of the participants.\nOnce a study participant reported the first symptoms of a URI, they were advised to take the intervention (i.e., placebo, EZC, or EZCD) taper dosed over a five-day period.\nDTR is a metric that measures the total number of days in which a patient is experiencing symptoms of an illness while taking the intervention or placebo. DTR also directly lends itself for use in a log-rank analysis, which is used to compute statistical significance.\nThe primary limitation of DTR arises from the heterogeneous nature of the illness and the patient's unique recovery. […]",
  "data": [
    {"substance": "vitamin D", "values": [
      {"measurement": "effect of addition of vitamin D on illness duration or symptom severity", "result": "neither benefited nor harmed"}
    ]}
  ]
}
